Test results from patent publication US20240206469A1, “PHOSPHORUS USE EFFICIENCY ENHANCERS AS PLANT GROWTH PROMOTORS” (EUROCHEM ANTWERPEN, priority 2021, published 2024).

Legend:
[1] = test system: Arabidopsis; test: Arabidopsis vertical plate growth assay (primary root length, shoot biomass); assay type: in vivo, Arabidopsis thaliana; conditions: 10 μM, low phosphate
Protocol: (§1) All Arabidopsis plant experiments were performed using the Arabidopsis thaliana Columbia-0 background. The Arabidopsis pSPX1::GUS line is described in the Plant Journal 2008, 54: 965-975. For rice, the cultivar Nipponbare was used. For maize, the cultivars DKC 2931 and B104 were used for regular pot experiments and sand-based pot experiments, respectively. For soybean, the cultivar Primus was used. […] The medium was solidified due to the addition of 0.6% Gelrite, unless stated otherwise. In case of vertical plates (root length and root hair measurements), the medium was supplied with 0.5% of sucrose and 1 μM (low phosphate, 1 μM KH2PO4, 9.9 mM KCl), 10 μM (low phosphate 10 μM KH2PO4, 9.9 mM KCl) or 1.25 mM KH2PO4 (high phosphate). Arabidopsis seeds were stratified for 2 days at 4° C. before germination. Seedlings were germinated in climate-controlled growth chambers at 22° C. under continuous light (100 μmol m^−2 s^−1). Husked rice seeds were germinated on wetted Whatman paper for 2 days at 37° C. and then transferred to Sterivent boxes or square Petri dishes with solid medium. Maize and soybean seeds were wetted 24 hours at room temperature prior to sowing in pots.
(§2) Arabidopsis primary root growth experiments were done on MS1/2 on vertical standing plates and roots were measured 11 days after germination. Roots were imaged using a flatbed scanner (EPSON Expression 11000XL) and root length was measured using ImageJ software. Arabidopsis shoot biomass was determined in 11 days after germination and growth on vertical standing plates with modMS. Arabidopsis leaf area was measured 21 days after germination on horizontal plates with modMS medium. Plates were scanned from the top using a flatbed scanner (EPSON Expression 11000XL) and the visible leaf area was measured using ImageJ software. Rice plate experiments used vertically standing Petri dishes containing MS1/2 medium (low phosphate—0.001 mM) solidified with 0.8% washed agar. Plant height was measured 11 days after germination. […] Plant height was measured 13 days after germination. […]

[2] = test system: Rice; test: Rice plate experiment; assay type: in vivo, rice cultivar Nipponbare; conditions: low phosphate 0.001 mM, 10 μM, 11 days after germination, control 14.4
Protocol: (§3) All Arabidopsis plant experiments were performed using the Arabidopsis thaliana Columbia-0 background. The Arabidopsis pSPX1::GUS line is described in the Plant Journal 2008, 54: 965-975. For rice, the cultivar Nipponbare was used. For maize, the cultivars DKC 2931 and B104 were used for regular pot experiments and sand-based pot experiments, respectively. For soybean, the cultivar Primus was used. […] The medium was solidified due to the addition of 0.6% Gelrite, unless stated otherwise. […]
as §2, with “Rice plate experiments used vertically standing Petri dishes containing MS1/2 medium (low phosphate—0.001 mM) solidified with 0.8% washed agar.” left out

[3] = test system: Maize; test: Sand-based maize pot experiment; assay type: in vivo, maize cultivar B104; conditions: low phosphate
Protocol: as §1
Regular Arabidopsis, soybean and maize pot experiments used an unfertilized potting soil, which was supplemented at the start of the experiment with 50 ml H2O containing 0.25 g/l NH4NO3 and 0.44 g/l (high phosphate) or no (maize and soybean) or 0.11 g/l KH2PO (Arabidopsis) for low phosphate conditions. For the sand-based maize pot experiment, sand was supplemented with 50 ml H2O containing 0.25 g/l NH4NO3 and 0.38 g/l (high phosphate) or 0.02 g/l (low phosphate) KH2PO4. Potassium was balanced via addition of KCl. Compound concentration was 10 μM, calculated based on the total water content after watering, and was added at the start of the experiment (Arabidopsis) or once a week (maize). Indexed chlorophyll contents were received via a SPAD 502 Plus Chlorophyll Meter. All parameters in the sand experiment, except the rate of leaf 4 (measured the first 4 days after emergence), were measured 19 days after sowing. Measurements in the pot experiments with potting soil were done after 4 weeks of growth, except for leaf 5, which was measured at 26 days. One long-term maize pot experiment was conducted with the DKC 2931 (2.5 months) and B104 (3 months) cultivars on the PHENOVISION phenotyping platform as described in Frontiers in Plant Science 2021, 12: 640914, except that an unfertilized potting soil was used and that plants were fertilized with a low-phosphate Hoagland solution. The 2.5× overconcentrated low-phosphate Hoagland solution contained 0.034 g/l KH2PO and 200 mL of this solution was applied twice a week. […]

[4] = test system: Maize; test: Regular maize pot experiment (potting soil); assay type: in vivo, maize cultivar DKC 2931; conditions: low phosphate, 10 μM
Protocol: as §1
(§4) Regular Arabidopsis, soybean and maize pot experiments used an unfertilized potting soil, which was supplemented at the start of the experiment with 50 ml H2O containing 0.25 g/l NH4NO3 and 0.44 g/l (high phosphate) or no (maize and soybean) or 0.11 g/l KH2PO (Arabidopsis) for low phosphate conditions. […] Compound concentration was 10 μM, calculated based on the total water content after watering, and was added at the start of the experiment (Arabidopsis) or once a week (maize). […] All parameters in the sand experiment, except the rate of leaf 4 (measured the first 4 days after emergence), were measured 19 days after sowing. Measurements in the pot experiments with potting soil were done after 4 weeks of growth, except for leaf 5, which was measured at 26 days. […]

[5] = test system: Soybean; test: Soybean pot experiment; assay type: in vivo, soybean cultivar Primus; conditions: low phosphate, 10 μM, 4 weeks
Protocol: as §3, §4

[6] = test system: Maize; test: Maize growth experiment in pots with mixture of unfertilized potting soil and sand (leaf 5); assay type: in vivo; conditions: maize, pots with unfertilized potting soil and sand, after 29 days; control 38.1
Protocol: For a subset of compounds, we performed a more extensive analysis on their root hair inducing effect in a dose-response experiment (Table 3). This confirms that the more simple structures 8.14 and 8.14.6 still retain the activity of compound 8. […] To validate this, we performed a maize growth experiment using compound 8 and the, based on the increase of total root hair length, stronger variant 8.14.6. The experiment was conducted in pots with a mixture of unfertilized potting soil and sand, and leaf 5 was measured after 29 days (Table 4).

## CC1CN(CC(=O)c2c(N)n(C)c(=O)n(C)c2=O)c2ccccc2O1 (centres unmarked) [Compound 8, 6-amino-1,3-dimethyl-5-[2-(2-methyl-2,3-dihydro-1,4-benzoxazin-4-yl)acetyl]pyrimidine-2,4-dione]
[1]; 11-day-old Arabidopsis
  Primary root length versus control without compound: almost double the length of the control
[1]; Arabidopsis vertical plate, 11 days after germination, control 1.8
  Primary root length: 3.5 cm
[1]; Arabidopsis vertical plate, 11 days after germination, control 11
  Shoot biomass: 21 mg
[2]
  Plant height: 16 cm
[3]; 10 μM once a week, 19 days after sowing, control 21
  Plant height: 28 cm
[3]; 19 days after sowing, SPAD, control 28
  Indexed chlorophyll content: 32
[3]; 19 days after sowing, control 2
  Crown root number: 7
[3]; first 4 days after emergence, control 2.04
  Growth rate of leaf 4: 2.46 cm/day
[4]; 4 weeks, control 4
  Shoot weight: 4.6 g
[4]; 4 weeks, control 57
  Plant height: 60 cm
[4]; 26 days, control 40
  Leaf 5: 48 cm
[5]; control 4.1
  Biomass: 4.4 g
[5]; control 50
  Plant height: 55 cm
[6]
  Leaf 5: 39.4 cm
